Several values for one entry are separate records, joined by “and”; a condition that tells them apart may be missing. Identical values can stand only once.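 Assay format: 96-well plates, 48-hour exposure. Abbreviation: GI50, concentration required for 50% inhibition of growth.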 Activity calls are given as the source filed them. No stated cut-off is given here; in the data, active = GI50 up to about 1.1 µM and inactive = higher.
Legend:
Assay in all cases: growth of human tumour cells (NCI), 48 h
786-0 = test system: 786-0
A498 = test system: A498
A549 = test system: A549
CAKI-1 = test system: CAKI-1
CCRF-CEM = test system: CCRF-CEM
DU-145 = test system: DU-145
EKVX = test system: EKVX
HCT-116 = test system: HCT-116
HOP-62 = test system: HOP-62
HOP-92 = test system: HOP-92
Hs-578T = test system: Hs-578T
IGROV-1 = test system: IGROV-1
K562 = test system: K562
KM12 = test system: KM12
LOX IMVI = test system: LOX IMVI
M14 = test system: M14
MCF7 = test system: MCF7
MDA-MB-231 = test system: MDA-MB-231
MDA-MB-435 = test system: MDA-MB-435
MDA-N = test system: MDA-N
Malme-3M = test system: Malme-3M
NCI-H522 = test system: NCI-H522
OVCAR-3 = test system: OVCAR-3
OVCAR-4 = test system: OVCAR-4
OVCAR-5 = test system: OVCAR-5
OVCAR-8 = test system: OVCAR-8
RXF 393 = test system: RXF 393
SF-268 = test system: SF-268
SF-295 = test system: SF-295
SF-539 = test system: SF-539
SK-MEL-28 = test system: SK-MEL-28
SK-MEL-2 = test system: SK-MEL-2
SK-OV-3 = test system: SK-OV-3
SN12C = test system: SN12C
SNB-19 = test system: SNB-19
SNB-75 = test system: SNB-75
SR = test system: SR
SW-620 = test system: SW-620
T47D = test system: T47D
TK-10 = test system: TK-10
U-251 = test system: U-251
UACC-257 = test system: UACC-257
UO-31 = test system: UO-31
ACHN = test system: ACHN
COLO 205 = test system: COLO 205
HCC 2998 = test system: HCC 2998
HCT-15 = test system: HCT-15
HL-60 = test system: HL-60
MOLT-4 = test system: MOLT-4
NCI-H226 = test system: NCI-H226
NCI-H23 = test system: NCI-H23
NCI-H460 = test system: NCI-H460
NCI/ADR-RES = test system: NCI/ADR-RES
PC-3 = test system: PC-3
RPMI-8226 = test system: RPMI-8226
SK-MEL-5 = test system: SK-MEL-5
UACC-62 = test system: UACC-62
HT-29 = test system: HT-29

With `COC(=O)[C@@H]1CC(C(C[N+](=O)[O-])c2ccc(O[Si](C)(C)C(C)(C)C)cc2)C(=O)N1C(=O)OC(C)(C)C` (some centres not stated) the GI50 (786-0) was > 100 µM (inactive), the GI50 (A498) was > 100 µM (inactive) and the GI50 (A549) was 67.6 µM (inactive) and 37.4 µM (inactive). The GI50 (CAKI-1) was > 100 µM (inactive) and 90.4 µM (inactive), the GI50 (CCRF-CEM) was 27.7 µM (inactive) and 18.1 µM (inactive) and the GI50 (DU-145) was > 100 µM (inactive). The GI50 (EKVX) was > 100 µM (inactive) and 61.5 µM (inactive), the GI50 (HCT-116) was 63.1 µM (inactive) and the GI50 (HOP-62) was > 100 µM (inactive). The GI50 (HOP-92) was 40.1 µM (inactive) and 61 µM (inactive), the GI50 (Hs-578T) was > 100 µM (inactive) and the GI50 (IGROV-1) was > 100 µM (inactive). For the same molecule, the GI50 (K562) was 22.9 µM (inactive) and 32.4 µM (inactive), the GI50 (KM12) was > 100 µM (inactive) and 76.6 µM (inactive) and the GI50 (LOX IMVI) was > 100 µM (inactive). The GI50 (M14) was 52.5 µM (inactive), the GI50 (MCF7) was 45.5 µM (inactive) and 29.6 µM (inactive) and the GI50 (MDA-MB-231) was > 100 µM (inactive). The GI50 (MDA-MB-435) was > 100 µM (inactive) and 73.5 µM (inactive), the GI50 (MDA-N) was > 100 µM (inactive) and the GI50 (Malme-3M) was > 100 µM (inactive) and 97.9 µM (inactive). For the same molecule, the GI50 (NCI-H522) was 53.2 µM (inactive) and 60.5 µM (inactive), the GI50 (OVCAR-3) was > 100 µM (inactive) and the GI50 (OVCAR-4) was 53.6 µM (inactive) and 29.6 µM (inactive). For the same molecule, the GI50 (OVCAR-5) was > 100 µM (inactive), the GI50 (OVCAR-8) was > 100 µM (inactive) and the GI50 (RXF 393) was 29.9 µM (inactive) and 20.6 µM (inactive). For the same molecule, the GI50 (SF-268) was > 100 µM (inactive) and 95.3 µM (inactive), the GI50 (SF-295) was > 100 µM (inactive) and 59.2 µM (inactive) and the GI50 (SF-539) was > 100 µM (inactive). For the same molecule, the GI50 (SK-MEL-28) was > 100 µM (inactive), the GI50 (SK-MEL-2) was > 100 µM (inactive) and the GI50 (SK-OV-3) was > 100 µM (inactive). The GI50 (SN12C) was 43.6 µM (inactive) and 69.8 µM (inactive), the GI50 (SNB-19) was > 100 µM (inactive) and the GI50 (SNB-75) was > 100 µM (inactive). The GI50 (SR) was 21 µM (inactive) and 33.8 µM (inactive), the GI50 (SW-620) was > 100 µM (inactive) and the GI50 (T47D) was 22.1 µM (inactive) and 32.5 µM (inactive). For the same molecule, the GI50 (TK-10) was > 100 µM (inactive), the GI50 (U-251) was > 100 µM (inactive) and 78 µM (inactive) and the GI50 (UACC-257) was > 100 µM (inactive) and 88.7 µM (inactive). For the same molecule, the GI50 (UO-31) was 32.7 µM (inactive) and 60.7 µM (inactive).

In the case of `CC1(C)CCC(C)(C)C1C(=O)NC(O)C(=O)O` (configuration not stated), the GI50 (786-0) was > 100 µM (inactive), the GI50 (A498) was > 100 µM (inactive) and the GI50 (A549) was > 100 µM (inactive). For the same molecule, the GI50 (ACHN) was > 100 µM (inactive), the GI50 (CCRF-CEM) was > 100 µM (inactive) and the GI50 (COLO 205) was > 100 µM (inactive). The GI50 (DU-145) was > 100 µM (inactive), the GI50 (EKVX) was > 100 µM (inactive) and the GI50 (HCC 2998) was > 100 µM (inactive). For the same molecule, the GI50 (HCT-116) was > 100 µM (inactive), the GI50 (HCT-15) was > 100 µM and the GI50 (HL-60) was > 100 µM (inactive). The GI50 (HOP-62) was > 100 µM (inactive), the GI50 (HOP-92) was 2.43 µM (inactive) and the GI50 (Hs-578T) was > 100 µM (inactive). The GI50 (IGROV-1) was > 100 µM (inactive), the GI50 (K562) was > 100 µM (inactive) and the GI50 (LOX IMVI) was > 100 µM (inactive). The GI50 (M14) was > 100 µM (inactive), the GI50 (MCF7) was > 100 µM (inactive) and the GI50 (MDA-MB-231) was > 100 µM (inactive). The GI50 (MDA-MB-435) was > 100 µM (inactive), the GI50 (MDA-N) was > 100 µM (inactive) and the GI50 (MOLT-4) was > 100 µM (inactive). The GI50 (NCI-H226) was > 100 µM (inactive), the GI50 (NCI-H23) was > 10 µM (inactive) and the GI50 (NCI-H460) was > 100 µM (inactive). For the same molecule, the GI50 (NCI/ADR-RES) was > 100 µM (inactive), the GI50 (OVCAR-5) was > 100 µM (inactive) and the GI50 (OVCAR-8) was > 100 µM (inactive). For the same molecule, the GI50 (PC-3) was > 100 µM (inactive), the GI50 (RPMI-8226) was > 100 µM (inactive) and the GI50 (SF-268) was > 100 µM (inactive). The GI50 (SF-539) was > 100 µM (inactive), the GI50 (SK-MEL-28) was > 100 µM (inactive) and the GI50 (SK-MEL-2) was > 100 µM (inactive). For the same molecule, the GI50 (SK-MEL-5) was > 100 µM (inactive), the GI50 (SK-OV-3) was > 100 µM (inactive) and the GI50 (SN12C) was > 100 µM (inactive). For the same molecule, the GI50 (SNB-19) was > 100 µM (inactive), the GI50 (SNB-75) was > 100 µM (inactive) and the GI50 (SR) was > 100 µM (inactive). The GI50 (SW-620) was > 100 µM (inactive), the GI50 (T47D) was > 100 µM (inactive) and the GI50 (TK-10) was > 100 µM (inactive). The GI50 (U-251) was > 100 µM (inactive), the GI50 (UACC-62) was > 100 µM (inactive) and the GI50 (UO-31) was > 100 µM (inactive).

With `O=C1OC[C@@H]2Cc3c([nH]c4ccccc34)[C@@H](c3cc(O)c(O)c(O)c3)N12` the GI50 (786-0) was 20.6 µM (inactive), the GI50 (A498) was 12 µM (inactive) and the GI50 (A549) was > 100 µM (inactive). The GI50 (ACHN) was 31.2 µM (inactive), the GI50 (CAKI-1) was 8.67 µM (inactive) and the GI50 (CCRF-CEM) was 12.6 µM (inactive). The GI50 (COLO 205) was 23.4 µM (inactive), the GI50 (DU-145) was 68.2 µM (inactive) and the GI50 (EKVX) was 44.5 µM (inactive). For the same molecule, the GI50 (HCC 2998) was 48.1 µM (inactive), the GI50 (HCT-116) was 25.3 µM (inactive) and the GI50 (HCT-15) was 31 µM. For the same molecule, the GI50 (HL-60) was 2.72 µM (inactive), the GI50 (HOP-62) was 21.4 µM (inactive) and the GI50 (HOP-92) was > 100 µM (inactive). The GI50 (HT-29) was 31 µM (inactive), the GI50 (Hs-578T) was 15.7 µM (inactive) and the GI50 (IGROV-1) was 25 µM (inactive). The GI50 (K562) was 3.91 µM (inactive), the GI50 (KM12) was 44.5 µM (inactive) and the GI50 (M14) was 15.2 µM (inactive). For the same molecule, the GI50 (MCF7) was 21.2 µM (inactive), the GI50 (MDA-MB-231) was 20.7 µM (inactive) and the GI50 (MDA-MB-435) was 2.69 µM (inactive). The GI50 (MDA-N) was 5.97 µM (inactive), the GI50 (MOLT-4) was 32.6 µM (inactive) and the GI50 (Malme-3M) was 4.37 µM (inactive). For the same molecule, the GI50 (NCI-H226) was 13.5 µM (inactive), the GI50 (NCI-H23) was 29.4 µM (inactive) and the GI50 (NCI-H460) was 37.8 µM (inactive). For the same molecule, the GI50 (NCI-H522) was 5.09 µM (inactive), the GI50 (NCI/ADR-RES) was 21.8 µM (inactive) and the GI50 (OVCAR-4) was 12.9 µM (inactive). For the same molecule, the GI50 (OVCAR-5) was 19.7 µM (inactive), the GI50 (OVCAR-8) was 16.4 µM (inactive) and the GI50 (PC-3) was 31.3 µM (inactive). For the same molecule, the GI50 (RPMI-8226) was 27.5 µM (inactive), the GI50 (RXF 393) was 18.9 µM (inactive) and the GI50 (SF-268) was 34.9 µM (inactive). For the same molecule, the GI50 (SF-295) was 2.57 µM (inactive), the GI50 (SF-539) was 18.9 µM (inactive) and the GI50 (SK-MEL-28) was 17.3 µM (inactive). The GI50 (SK-MEL-2) was 3.14 µM (inactive), the GI50 (SK-MEL-5) was 8.39 µM (inactive) and the GI50 (SK-OV-3) was > 100 µM (inactive). For the same molecule, the GI50 (SN12C) was 26.9 µM (inactive), the GI50 (SNB-19) was 24 µM (inactive) and the GI50 (SNB-75) was 3.29 µM (inactive). For the same molecule, the GI50 (SR) was 13.9 µM (inactive), the GI50 (SW-620) was 21.3 µM (inactive) and the GI50 (T47D) was 37 µM (inactive). For the same molecule, the GI50 (TK-10) was 41.5 µM (inactive), the GI50 (U-251) was 25.3 µM (inactive) and the GI50 (UACC-257) was 2.99 µM (inactive). For the same molecule, the GI50 (UACC-62) was 8.93 µM (inactive) and the GI50 (UO-31) was 27.3 µM (inactive).
